*1 amine or outer side, *2 acyl side, *3 side chain or, on linkers, in order; H or OH if unused. Where a SMILES comes first, the peptide text is derived from it. Side-chain parts run from the residue outwards. [ ]: non-standard residue; d: D form. The star is where a group is joined. C20 diacid = O=C(O)CCCCCCCCCCCCCCCCCCC(=O)*; γGlu = O=C(O)[C@H](CCC(=O)[*:2])N[*:1]; NMeI = CC[C@H](C)[C@H](NC)C(=O)O; Aib = CC(C)(N)C(=O)O
Legend:
Sprague Dawley rats = test: Effect on systolic blood pressure, telemetry in Sprague Dawley rats; type: in vivo, rat; conditions: 0.1 mg/kg SC
Procedure, shortened: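 Sprague Dawley rats with abdominal-aorta telemetry catheters, recovered ≥10 days, received 0.1 mg/kg SC of compound or vehicle. Systolic pressure recorded 1 h pre-dose as baseline, then continuously up to 48 hours, expressed as % change from baseline; duration of action is last time point with a BP effect (n=2).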

[1] = Pharmacokinetics in male Sprague Dawley rats after subcutaneous administration; type: in vivo; conditions: plasma, rat
[2] = In vitro plasma stability, rat plasma; type: in vitro ADME; design: remaining at 2 h: dose or concentration left out as unconfirmed; conditions: male, Sprague Dawley, plasma; Rat PLM, 37° C.
[3] = Chemical stability in buffer (pH 7.4 / pH 4.5), % purity loss; type: physicochemical; conditions: 100 mM phosphate buffer pH 7.4; 40° C. vs 5° C.; 14 or 28 days
Procedure, shortened: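 Compounds dissolved at 10 mg/mL target in 100 mM phosphate (pH 7.4) or 100 mM acetate (pH 4.5) buffer for 1 h at room temperature, then centrifuged. Diluted supernatant stored at 5 °C or 40 °C for 14 or 28 days; % purity loss by LC-UV.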

in vitro = test: in vitro; design: dose or concentration left out as unconfirmed; conditions: dog, plasma

SMILES: CC[C@H](C)[C@H](NC)C(=O)N[C@H](C(=O)N[C@@H](CC(C)C)C(=O)N[C@@H](CO)C(=O)N[C@@H](CC(C)C)C(=O)N[C@@H](CC(=O)O)C(=O)N[C@@H](C(=O)N1CCC[C@H]1C(=O)N[C@H](C(=O)N[C@@H](CCCCN)C(=O)N[C@@H](CC(C)C)C(=O)N[C@@H](CCCCNC(=O)CC[C@H](NC(=O)CCCCCCCCCCCCCCCCCCC(=O)O)C(=O)O)C(=O)N[C@@H](CCCCN)C(=O)N[C@H](C(=O)N[C@@H](CC(C)C)C(=O)N[C@@H](CC(C)C)C(=O)N[C@@H](CCC(=O)O)C(=O)N[C@@H](CCC(N)=O)C(=O)N[C@@H](CCC(=O)O)C(=O)N[C@@H](CCCCN)C(=O)N[C@@H](CCC(N)=O)C(=O)N[C@@H](CCCCN)C(=O)N[C@@H](CCC(=O)O)C(=O)N[C@@H](CCC(N)=O)C(=O)N[C@@H](CCCNC(=N)N)C(=O)N[C@@H](CCC(=O)O)C(=O)N[C@@H](CCC(N)=O)C(=O)N[C@@H](C)C(=O)N[C@@H](CCC(=O)O)C(=O)N[C@H](C(=O)N[C@@H](CC(N)=O)C(=O)NC(C)(C)C(=O)N[C@@H](CCC(N)=O)C(=O)N[C@H](C(=O)N[C@@H](CC(C)C)C(=O)N[C@@H](C)C(=O)N[C@@H](CCC(N)=O)C(=O)N[C@H](C(N)=O)C(C)C)[C@@H](C)CC)[C@@H](C)O)[C@@H](C)CC)[C@@H](C)CC)C(C)C)C(C)C [compound 218] (H-[NMeI]VLSLD[dV]PIKLK([γGlu-C20 diacid])KILLEQEKQKEQREQAETN[Aib]QILAQV-NH2)
- Systolic blood pressure (Mean) % change from baseline, 8 h (Sprague Dawley rats; 8 h, n=2): −13%
- Systolic blood pressure (Mean) % change from baseline, 12 h (Sprague Dawley rats; 12 h, n=2): −17%
- Systolic blood pressure (Mean) % change from baseline, 24 h (Sprague Dawley rats; 24 h, n=2): −16%
- Duration of action (Sprague Dawley rats; last time point with an effect on BP still observed): >24 h
- AUC(0-t) ([1]; IV, 0.05 mg/kg): 6740 ng·h/mL
- half-life ([1]; IV, 0.05 mg/kg): 11 h
- Tmax ([1]; SC, 0.1 mg/kg): 24 h
- remaining at 2 h [2]: 109%
- Buffer stability pH 7.4 % purity loss [3]: 0.0/Not Tested %
- remaining at 2 h (in vitro): 102%

— patent US20260001928A1 (CORTERIA PHARMACEUTICALS, priority 2022, published 2026)
